# Results from PMC3189207, “DomPep—A General Method for Predicting Modular Domain-Mediated Protein-Protein Interactions” (PLoS ONE, 2011).
# Residues, ends and D or L forms follow the SMILES beside them.
# Legend:
# [1] = biological target: T1, Scrib PDZ-1 domain (Homo sapiens, UniProt Q14160); experiment: In-solution fluorescence polarization binding of peptides to Scrib PDZ1; details: Kd value of 100 µM applied as binding cutoff, NB without definition, read-out: Kd (µM) PDZ1
# T1 construct: ROC curves of DomPep prediction for the three Scrib PDZ-1/2/3 domains
# [2] = biological target: T2, Scrib PDZ-2 domain (Homo sapiens, UniProt Q14160); experiment: In-solution fluorescence polarization binding of peptides to Scrib PDZ2; details: Kd value of 100 µM applied as binding cutoff, NB without definition, read-out: Kd (µM) PDZ2
# T2 construct: ROC curves of DomPep prediction for the three Scrib PDZ-1/2/3 domains
# T2 sequence (Q14160 862-950 limits assumed): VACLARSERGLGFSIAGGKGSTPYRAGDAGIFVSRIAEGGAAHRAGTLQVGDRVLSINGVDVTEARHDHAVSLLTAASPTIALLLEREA
# [3] = biological target: T3, Scrib PDZ-3 domain (Homo sapiens, UniProt Q14160); experiment: In-solution fluorescence polarization binding of peptides to Scrib PDZ3; details: Kd value of 100 µM applied as binding cutoff, NB without definition
# T3 construct: ROC curves of DomPep prediction for the three Scrib PDZ-1/2/3 domains
# T3 sequence (Q14160 1004-1093 limits assumed): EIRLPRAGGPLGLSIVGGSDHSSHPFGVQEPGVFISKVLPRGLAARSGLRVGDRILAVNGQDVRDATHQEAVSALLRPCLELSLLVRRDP
# Description: Because DomPep compared favorably to MDSM in identifying ligands for a PDZ domain included in the training set and to SPSSM in identifying binding peptides for an untrained PDZ domain, we next tested it whether it could reliably PPIs mediated by a PDZ domain on the genome scale. To this end, we employed three DomPep models to predict interactions between the Scrib PDZ domains and human proteins from the Swiss-Prot protein database. The three prediction models, which were generated for the mouse Scrib PDZ-1, PDZ-2 and PDZ-3 domains, were trained with 6, 5 and 30 positive peptide, respectively (Table S1). Searching the protein database with these models yielded a list of potential PDZ ligands. […] This experiment identified 14, 14, and 38 positives for the PDZ-1, -2, and -3 domains, respectively (Table 1). […] Importantly, we identified four peptides that were not included in the training set as physiological binders to the Scrib PDZ domains. The corresponding proteins, namely APC, LPP, VANGL2 and ZO2, were previously reported to interact with Scrib in vivo via its PDZ domains, [36], [37], [38], [39].
# Figure 4 Application of DomPep to the prediction of PDZ-binding ligands. ROC curves of DomPep prediction for the three Scrib PDZ-1/2/3 domains using 56 peptides selected from the human protein database as the test set. The respective affinities of the three domains for the 56 peptides were measured by fluorescence polarization (Table 1).
# T1 sequence (Q14160 728-815 limits assumed): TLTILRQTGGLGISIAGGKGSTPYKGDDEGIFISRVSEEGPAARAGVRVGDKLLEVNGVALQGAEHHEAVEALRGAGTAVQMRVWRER
Structure (SMILES),Kd [1] [µM],Kd [2] [µM],Kd [3] [µM]
CC(C)C[C@H](NC(=O)[C@@H](NC(=O)[C@H](CCCCN)NC(=O)[C@H](CC(C)C)NC(=O)[C@H](Cc1ccccc1)NC(=O)[C@H](CCCCN)NC(=O)[C@H](CCC(=O)O)NC(=O)[C@H](Cc1ccccc1)NC(=O)[C@H](CC(=O)O)NC(=O)[C@@H](N)CCC(N)=O)[C@@H](C)O)C(=O)O [MTERFD1] (H-QDFEKFLKTL-OH; N-terminus and C-terminus assumed),> 100,> 100,> 100
CC(C)[C@H](NC(=O)[C@H](CO)NC(=O)[C@@H](NC(=O)[C@@H](NC(=O)CNC(=O)[C@H](CCC(=O)O)NC(=O)[C@H](C)NC(=O)[C@H](CCCNC(=N)N)NC(=O)[C@H](CCC(=O)O)NC(=O)[C@@H](N)CS)[C@@H](C)O)C(C)C)C(=O)O [MUSK] (H-CERAEGTVSV-OH),> 100,> 100,143
CC[C@H](C)[C@H](NC(=O)[C@@H](NC(=O)[C@H](Cc1ccccc1)NC(=O)[C@H](CCC(=O)O)NC(=O)[C@@H]1CCCN1C(=O)[C@H](CC(N)=O)NC(=O)[C@@H](NC(=O)[C@@H](N)Cc1ccc(O)cc1)[C@@H](C)O)C(C)C)C(=O)N[C@@H](CC(N)=O)C(=O)N[C@H](C(=O)O)C(C)C [PRKCB1] (H-YTNPEFVINV-OH; N-terminus and C-terminus assumed),> 100,> 100,> 100
CC(C)[C@H](NC(=O)[C@H](CO)NC(=O)[C@H](CCCCN)NC(=O)[C@H](CCCCN)NC(=O)[C@H](CO)NC(=O)[C@H](CCCCN)NC(=O)[C@H](CCCCN)NC(=O)[C@H](CCCCN)NC(=O)[C@H](CCC(=O)O)NC(=O)[C@H](C)N)C(=O)O [PSMA8] (H-AEKKKSKKSV-OH),> 100,> 100,177
CC(C)C[C@H](NC(=O)[C@H](CCCCN)NC(=O)[C@H](CO)NC(=O)[C@H](CCC(=O)O)NC(=O)[C@H](CO)NC(=O)[C@@H](NC(=O)[C@H](CCC(N)=O)NC(=O)[C@@H]1CCCN1C(=O)[C@H](CCCCN)NC(=O)[C@@H](N)C(C)C)C(C)C)C(=O)O [PTE1] (H-VKPQVSESKL-OH; N-terminus and C-terminus assumed),> 100,> 100,> 100
CC(C)C[C@H](NC(=O)[C@H](CS)NC(=O)[C@H](CC(=O)O)NC(=O)[C@@H](NC(=O)[C@H](CC(N)=O)NC(=O)[C@H](CCCNC(=N)N)NC(=O)[C@H](CC(C)C)NC(=O)CNC(=O)CNC(=O)[C@@H](N)CC(=O)O)C(C)C)C(=O)O [TBK1] (H-DGGLRNVDCL-OH),77,> 100,67.8
CC[C@H](C)[C@H](NC(=O)[C@@H](N)CC(N)=O)C(=O)NCC(=O)N[C@@H](CO)C(=O)N[C@@H](CCC(N)=O)C(=O)NCC(=O)N[C@@H](CO)C(=O)N[C@H](C(=O)N[C@@H](CC(=O)O)C(=O)N[C@@H](Cc1ccc(O)cc1)C(=O)O)[C@@H](C)O [TRIM21] (H-NIGSQGSTDY-OH),> 100,> 100,116
CC[C@H](C)[C@H](NC(=O)[C@H](C)NC(=O)[C@H](CO)NC(=O)[C@H](CC(C)C)NC(=O)[C@H](CC(C)C)NC(=O)[C@@H](N)CCC(=O)O)C(=O)N[C@@H](CCC(=O)O)C(=O)N[C@@H](CCCCN)C(=O)N[C@@H](CC(C)C)C(=O)N[C@@H](CC(C)C)C(=O)O [UBXD1] (H-ELLSAIEKLL-OH; N-terminus and C-terminus assumed),> 100,> 100,> 100
CC(C)C[C@H](NC(=O)[C@H](CCCCN)NC(=O)[C@H](CO)NC(=O)[C@H](CC(N)=O)NC(=O)[C@@H](NC(=O)[C@H](CO)NC(=O)[C@H](Cc1c[nH]cn1)NC(=O)[C@@H]1CCCN1C(=O)[C@H](CC(C)C)NC(=O)[C@@H](N)CCC(=O)O)C(C)C)C(=O)O [ZADH2] (H-ELPHSVNSKL-OH; N-terminus and C-terminus assumed),> 100,> 100,> 100
